We go through 14 compounds from PubChem BioAssay (NCI).

As a reminder, the TGI is the concentration giving total growth inhibition. A low value points to more potent growth arrest.

What all share (assay): DTP human tumour cell line panel, 48 h
For test [1], the system named is A549 NSCLC.
In test [2] the test system is CAKI-1 renal.
Test [3] concerns EKVX NSCLC.
The subject of test [4] is IGROV1 ovarian.
Test [5] deals with LOX IMVI melanoma.
For test [6], the system named is M14 melanoma.
Test [7] relates to NCI-H226 lung.
The subject of test [8] is RPMI-8226 leukemia.
Test [9] deals with SF-268 CNS.
For test [10], the system named is TK-10 renal.

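Values below derive from 48-hour exposures of cells grown in 96-well plates, with endpoints linearly interpolated between the two concentrations bracketing the appropriate inhibition level. At the TGI there is no net growth.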 Some results are limits rather than exact numbers.

On to `CC1=C2C(=O)c3ccccc3C(=O)[C@H]2C[C@@H](N2CCCCCC2=O)O1`, for which the TGI in test [1] is 39.7 µM; in test [2], 35.5 µM; in test [3], 57 µM; in test [4] it was 30.7 µM; in test [5], 44.5 µM; in test [6], 28.8 µM. In addition, the TGI was over 100 µM in [7], 35.4 µM in [8], 36.3 µM in test [9] and 37.7 µM in [10].

Take `NC(=O)C1=CC2C3C=CC2(O)C(=O)OC3O1` (stereo not drawn): the TGI in [1] is over 100 µM; in [2] it was 17 µM; in test [3], 13.5 µM; in test [4] it was 11.7 µM; in [5], 5.18 µM; in [6], 13.2 µM. Also, the TGI was 5.83 µM in [7], over 29.5 µM in [8], 20.9 µM in [9] and 16.7 µM in test [10].

With `COc1ccc(/C=C2\CCC(CNc3ccc(Br)cc3)C2=O)cc1` (stereo not drawn), the TGI in [1], in test [2], in test [3], in test [4], in test [5] and in test [6] was over 100 µM in each case. Moreover, the TGI was over 100 µM in test [7], 33.3 µM in test [8], over 100 µM in [9] and over 100 µM in test [10].

With `CC(=O)CC1(C)OC(N)=C(C#N)C1(C#N)C#N` (stereo not drawn), the TGI in test [1], in [2], in test [3], in [4], in [5] and in [6] was over 100 µM throughout. In addition, the TGI in [7], in [8], in [9] and in test [10] was over 100 µM each time.

`CC(C)(C)c1ccc(-c2nnc(-c3cc(C#N)cc(-c4nnc(-c5ccc(C(C)(C)C)cc5)o4)c3)o2)cc1`: the TGI in test [1], in test [2], in test [3], in [4], in test [5] and in [6] was over 100 µM in each case. Further, the TGI in test [7], in test [8], in [9] and in test [10] was over 100 µM each time.

On to `CC(C)(C)c1c(C(C)(C)C)c(=O)c1=O`, for which the TGI in [1], in [2], in test [3], in [5], in [6] and in [7] was over 100 µM in each case. Also, the TGI in [8], in test [9] and in [10] was over 100 µM throughout.

As for `O=P(O)(O)CN1CCNCCN(CP(=O)(O)O)CCNCC1`, the TGI was over 100 µM in test [1]; over 100 µM in test [2]; over 100 µM in test [3]; over 51.2 µM in test [4]; over 100 µM in [5]; over 100 µM in [6]. Besides, the TGI in [7] was over 94.9 µM; in test [8], over 100 µM; in test [9], over 100 µM; in [10], over 100 µM.

Take `CCOC(=O)c1nc2ccccc2nc1NCc1ccc(Cl)cc1Cl`: the TGI in test [1], in test [2], in test [3], in test [4], in [5] and in test [6] was over 100 µM throughout. Further, the TGI in test [7], in test [8], in test [9] and in [10] was over 100 µM throughout.

With `Cc1cc(S(=O)(=O)O)c(NC(=O)c2oc3cc(O)ccc3c(=O)c2C)cc1Cl`, the TGI in [1], in [2], in test [3], in test [4], in [5] and in test [6] was over 100 µM each time. In addition, the TGI in test [7], in test [8], in test [9] and in [10] was over 100 µM throughout.

As to `O=C1CC2(CCNCC2)C(=O)N1N1CCOCC1`, the TGI in [1], in [2], in test [3], in test [4], in test [5] and in test [6] was over 100 µM each time. Further, the TGI in test [7], in [8], in test [9] and in test [10] was over 100 µM each time.

Regarding `COc1ccc(-c2c3ccccc3c(-c3ccc(OCCCCCBr)cc3)c3ccccc23)cc1`, the TGI in test [1], in test [2], in test [3], in test [4], in test [5] and in test [6] was over 100 µM in each case. The TGI in test [7], in [8], in [9] and in test [10] was over 100 µM throughout.

Consider `COC(=O)n1c(C[P+](c2ccccc2)(c2ccccc2)c2ccccc2)cc2ccccc21`, for which the TGI is 12.4 µM in test [1]; 7.15 µM in test [2]; 11.1 µM in test [3]; 12 µM in test [4]; 11.5 µM in [5]; 7.37 µM in test [6]. Moreover, the TGI in test [7] is 5.95 µM; in test [8], 14.7 µM; in [9], 16.1 µM; in test [10], 9.12 µM.

For the compound `Cn1c(=O)sc2cc(C(=S)N3CCOCC3)ccc21`, the TGI in test [1], in test [2], in test [3], in test [4], in test [5] and in test [6] was over 100 µM throughout. In addition, the TGI in test [7], in [8], in test [9] and in test [10] was over 100 µM throughout.

For the compound `COC(=O)C(C(=O)C(=O)NC1Nc2ccc(C)cc2S1)c1nc2ccc(Cl)cc2[nH]c1=O` (stereo not drawn), the TGI in test [1], in [2], in test [3], in test [4], in test [5] and in test [7] was over 100 µM throughout. Further, the TGI in test [8], in test [9] and in test [10] was over 100 µM in each case.
